Results published in patent US7786141B2 (Vertex Pharmaceuticals Incorporated, priority 2004, dated 2010).
Read-outs that look alike come from different tables or passages of the source.

Tests used:
M4 muscarinic receptor = molecular target: T1, M4 muscarinic receptor (Homo sapiens, UniProt P08173); assay: Functional mobilization of intracellular calcium (FLIPR) in M4-CHO cells; assay type: cell-based
T1 construct: expressed in transfected cells; host or cells: CHO (M4-CHO)
T1 sequence (P08173 1-479): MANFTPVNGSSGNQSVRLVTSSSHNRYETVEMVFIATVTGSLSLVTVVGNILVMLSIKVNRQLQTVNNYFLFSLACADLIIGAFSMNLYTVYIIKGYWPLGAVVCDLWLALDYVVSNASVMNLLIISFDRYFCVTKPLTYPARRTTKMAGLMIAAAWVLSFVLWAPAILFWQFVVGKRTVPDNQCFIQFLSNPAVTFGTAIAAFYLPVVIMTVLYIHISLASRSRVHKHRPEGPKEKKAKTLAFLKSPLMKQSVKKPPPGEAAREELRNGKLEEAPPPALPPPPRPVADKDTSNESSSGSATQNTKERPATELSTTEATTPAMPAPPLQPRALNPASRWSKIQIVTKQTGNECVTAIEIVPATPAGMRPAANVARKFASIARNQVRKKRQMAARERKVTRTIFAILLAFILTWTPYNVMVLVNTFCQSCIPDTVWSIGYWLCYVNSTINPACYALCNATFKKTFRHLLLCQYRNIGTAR
Procedure, shortened: (§1)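 Steps: seed M1- or M4-CHO cells 18-24 hrs ahead; load calcium dye with 1 mM probenecid; add test compound (0.5% DMSO final), either alone for agonism or 15 min before EC80 carbachol for inhibition; record FLIPR fluorescence for 60 sec.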

M1 muscarinic receptor = molecular target: T2, M1 muscarinic receptor (Homo sapiens, UniProt P11229); assay: Functional mobilization of intracellular calcium (FLIPR) in M1-CHO cells; assay type: cell-based
T2 construct: expressed in transfected cells; host or cells: CHO (M1-CHO)
T2 sequence (P11229 1-460): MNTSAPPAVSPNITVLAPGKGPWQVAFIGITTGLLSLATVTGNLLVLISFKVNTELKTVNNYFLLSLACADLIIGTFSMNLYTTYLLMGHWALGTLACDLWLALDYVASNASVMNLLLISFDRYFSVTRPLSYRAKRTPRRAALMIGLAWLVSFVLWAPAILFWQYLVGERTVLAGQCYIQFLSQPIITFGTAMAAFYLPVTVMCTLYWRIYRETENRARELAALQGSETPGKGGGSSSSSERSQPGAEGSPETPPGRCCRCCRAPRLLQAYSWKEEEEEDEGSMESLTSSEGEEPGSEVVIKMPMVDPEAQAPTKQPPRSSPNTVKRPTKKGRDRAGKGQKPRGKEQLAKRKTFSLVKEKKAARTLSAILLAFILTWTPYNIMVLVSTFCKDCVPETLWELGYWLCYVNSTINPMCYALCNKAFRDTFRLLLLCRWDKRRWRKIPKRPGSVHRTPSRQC
Procedure, shortened: as §1

[1] = Table 4, 100% efficacy is the maximum response obtained with the Carbachol control
[2] = M4 receptor, calcium mobilization
[3] = M4 receptor, calcium mobilization, read-out: M4 Efficacy
[4] = M1 receptor, calcium mobilization
[5] = M1 receptor, calcium mobilization, read-out: M1 Efficacy
[6] = Table 4, modulating M4 receptor
[7] = Table 4, modulating M1 receptor

## CCOC(=O)N1CCC(CN2CCC3(CC2)CN(C(C)=O)c2c(C)cc(C)cc23)CC1 [compound 869]
M4 muscarinic receptor; [1]
  Emax: 25 to 100%
M4 muscarinic receptor; Table 4, M4 receptor, calcium mobilization (FLIPR)
  M4 Activity: xxx (activity was measured to be less than 2.0 μM)
M1 muscarinic receptor; [1]
  Emax: 25 to 100%
M1 muscarinic receptor; Table 4, M1 receptor, calcium mobilization (FLIPR)
  M1 Activity: xx (activity was measured to be between 2.0 μM and 5.0 μM)

## CCOC(=O)N1C2CCC1CC(N1CCC3(CC1)CN(C(=O)OCCOC)c1ccc(F)cc13)C2 (centres unmarked) [compound 90]
M4 muscarinic receptor; [2]
  M4 Activity: x (activity was measured to be greater than 1.0 μM)
M4 muscarinic receptor; [3]
  Emax: < 65%
M1 muscarinic receptor; [4]
  M1 Activity: xx (activity was measured to be between 0.1 μM and 1.0 μM)
M1 muscarinic receptor; [5]
  Emax: 65 to 85%

## CCOC(=O)N1CCC(N2CCC3(CC2)CN(C(=O)N(C)c2ccccc2)c2ccc(F)cc23)CC1 [compound 169]
M4 muscarinic receptor; [2]
  M4 Activity: x (activity was measured to be greater than 1.0 μM)
M4 muscarinic receptor; [3]
  Emax: > 85%
M1 muscarinic receptor; [4]
  M1 Activity: xxx (activity was measured to be less than 0.1 μM)
M1 muscarinic receptor; [5]
  Emax: 65 to 85%

## CCOC(=O)N1CCC(N2CCC3(CC2)CN(C(=O)c2ccccn2)c2ccc(F)cc23)CC1 [compound 331]
M4 muscarinic receptor; [2]
  M4 Activity: x (activity was measured to be greater than 1.0 μM)
M4 muscarinic receptor; [3]
  Emax: < 65%
M1 muscarinic receptor; [4]
  M1 Activity: xx (activity was measured to be between 0.1 μM and 1.0 μM)
M1 muscarinic receptor; [5]
  Emax: < 65%

## Clc1ccc2c(c1)C1(CCN(C3CCCCCC3)CC1)CN2 [compound 333]
M4 muscarinic receptor; [2]
  M4 Activity: x (activity was measured to be greater than 1.0 μM)
M4 muscarinic receptor; [3]
  Emax: < 65%
M1 muscarinic receptor; [4]
  M1 Activity: x (activity was measured to be greater than 1.0 μM)
M1 muscarinic receptor; [5]
  Emax: < 65%

## CCOC(=O)N1CCCC(N2CCC3(CC2)CN(C(C)=O)c2ccc(F)cc23)CC1 (centres unmarked) [compound 309]
M4 muscarinic receptor; [2]
  M4 Activity: x (activity was measured to be greater than 1.0 μM)
M4 muscarinic receptor; [3]
  Emax: < 65%
M1 muscarinic receptor; [4]
  M1 Activity: xx (activity was measured to be between 0.1 μM and 1.0 μM)
M1 muscarinic receptor; [5]
  Emax: > 85%

## CCOC(=O)N1CCC(N2CCC3(CC2)CN(C(=O)OC)c2ccc(F)cc23)CC1 [compound 173]
M4 muscarinic receptor; [2]
  M4 Activity: xx (activity was measured to be between 0.1 μM and 1.0 μM)
M4 muscarinic receptor; [3]
  Emax: > 85%
M1 muscarinic receptor; [4]
  M1 Activity: xxx (activity was measured to be less than 0.1 μM)
M1 muscarinic receptor; [5]
  Emax: 65 to 85%

## CC(=O)N1CC2(CCN(CC3=C(C)C=CCC3(C)C)CC2)c2cc(F)ccc21 [compound 600]
M4 muscarinic receptor; [1]
  Emax: < 25%
M4 muscarinic receptor; [6]
  M4 Activity: x (activity was measured to be greater than 5.0 μM)
M1 muscarinic receptor; [1]
  Emax: < 25%
M1 muscarinic receptor; [7]
  M1 Activity: x (activity was measured to be greater than 5.0 μM)

## O=C1CC2(CCN(C3CCCCC3)CC2)c2cc(Cl)ccc21 [compound 715]
M4 muscarinic receptor; [1]
  Emax: 25 to 100%
M4 muscarinic receptor; [6]
  M4 Activity: xxx (activity was measured to be less than 2.0 μM)
M1 muscarinic receptor; [1]
  Emax: 25 to 100%
M1 muscarinic receptor; [7]
  M1 Activity: xxx (activity was measured to be less than 2.0 μM)

## CS(=O)(=O)N[C@H]1CCC2(CCN(CC3CC4C=CC3C4)CC2)c2ccccc21 (some centres unmarked) [compound 627]
M4 muscarinic receptor; [1]
  Emax: 25 to 100%
M4 muscarinic receptor; [6]
  M4 Activity: xxx (activity was measured to be less than 2.0 μM)
M1 muscarinic receptor; [1]
  Emax: 25 to 100%
M1 muscarinic receptor; [7]
  M1 Activity: xxx (activity was measured to be less than 2.0 μM)

## CN(C)C(=O)NC1CCC2(CCN(CC3CCCCC3)CC2)c2ccccc21 (centres unmarked) [compound 673]
M4 muscarinic receptor; [1]
  Emax: 25 to 100%
M4 muscarinic receptor; [6]
  M4 Activity: xx (activity was measured to be between 2.0 μM and 5.0 μM)
M1 muscarinic receptor; [1]
  Emax: < 25%
M1 muscarinic receptor; [7]
  M1 Activity: x (activity was measured to be greater than 5.0 μM)

## CN(C)C(=O)N1CC2(CCN(C3CC4CCC(C3)N4C(=O)OCCF)CC2)c2cc(F)ccc21 (centres unmarked) [compound 32]
M4 muscarinic receptor; [2]
  M4 Activity: xxx (activity was measured to be less than 0.1 μM)
M4 muscarinic receptor; [3]
  Emax: 65 to 85%
M1 muscarinic receptor; [4]
  M1 Activity: xxx (activity was measured to be less than 0.1 μM)
M1 muscarinic receptor; [5]
  Emax: > 85%

## CCOC(=O)N1CCC(CN2CCC3(CC2)CN(C(C)=O)c2c(C)cccc23)CC1 [compound 785]
M4 muscarinic receptor; [1]
  Emax: 25 to 100%
M4 muscarinic receptor; [6]
  M4 Activity: xxx (activity was measured to be less than 2.0 μM)
M1 muscarinic receptor; [1]
  Emax: 25 to 100%
M1 muscarinic receptor; [7]
  M1 Activity: xx (activity was measured to be between 2.0 μM and 5.0 μM)

## COC(=O)N1CC2(CCN(C3CC4CCC(C3)N4C(=O)OC)CC2)c2cc(F)ccc21 (centres unmarked) [compound 235]
M4 muscarinic receptor; [2]
  M4 Activity: x (activity was measured to be greater than 1.0 μM)
M4 muscarinic receptor; [3]
  Emax: 65 to 85%
M1 muscarinic receptor; [4]
  M1 Activity: xx (activity was measured to be between 0.1 μM and 1.0 μM)
M1 muscarinic receptor; [5]
  Emax: 65 to 85%
